{
  "source": "ChEMBL document CHEMBL4002645",
  "about": "“Discovery of Potent, Selective, and Structurally Novel Dot1L Inhibitors by a Fragment Linking Approach” (ACS Med Chem Lett, 2017)",
  "key": {"[1]": {"molecular_target": "T1, Histone-lysine N-methyltransferase, H3 lysine-79 specific (Homo sapiens, UniProt Q8TEK3)", "assay": "Inhibition of DOT1L (2 to 416 residues) (unknown origin) using biotinylated nucleosomes as substrate preincubated for 30 mins followed by substrate addition in presence of [3H-Me]SAM by scintillation proximity assay"}, "[2]": {"molecular_target": "T1, Histone-lysine N-methyltransferase, H3 lysine-79 specific", "assay": "Binding affinity to human Avi-tagged biotinylated DOT1L (2 to 416 residues) assessed as target residence time at 100 nM by surface plasmon resonance assay"}, "[3]": {"test_system": "MV4-11", "assay": "Antiproliferative activity against human MV4-11 cells harboring MLL-AF4 treated for 6 hrs measured after 8 days by Celltiter-Glo reagent based assay", "assay_type": "functional, cell-based"}, "[4]": {"molecular_target": "T1, Histone-lysine N-methyltransferase, H3 lysine-79 specific", "assay": "Inhibition of DOT1L in human HeLa cells assessed as reduction in H3K79me2 level after 72 hrs by ELISA", "assay_type": "cell-based"}, "[5]": {"molecular_target": "T1, Histone-lysine N-methyltransferase, H3 lysine-79 specific", "assay": "Inhibition of DOT1L in human MOLM13 cells assessed as suppression of HoxA9 gene after 72 hrs by luciferase reporter gene assay", "assay_type": "cell-based"}, "[6]": {"molecular_target": "T1, Histone-lysine N-methyltransferase, H3 lysine-79 specific", "assay": "Competitive inhibition of DOT1L (2 to 416 residues) (unknown origin) using biotinylated nucleosomes as substrate preincubated for 30 mins followed by substrate addition in presence of [3H-Me]SAM by scintillation proximity assay"}},
  "data": [
    {"smiles": "O=C(CNC(=O)Nc1ccc2ccn(-c3ccccc3Cl)c2c1)NCCCCN[C@@H]1CCCN(c2ncnc3[nH]ccc23)C1", "values": [
      {"measurement": "IC50", "setting": "[1]; read-out: IC50", "value": 4, "unit": "nM"}
    ]},
    {"smiles": "N[C@@H]1CCCN(c2ncnc3[nH]ccc23)C1", "values": [
      {"measurement": "IC50", "setting": "[1]; read-out: IC50", "value": 240000, "unit": "nM"}
    ]},
    {"smiles": "O=C(CNC(=O)Nc1ccc2ccn(-c3ccccc3Cl)c2c1)NCCCN[C@@H]1CCCN(c2ncnc3[nH]ccc23)C1", "values": [
      {"measurement": "IC50", "setting": "[1]; read-out: IC50", "value": 4, "unit": "nM"}
    ]},
    {"smiles": "Nc1ncnc2c1ncn2[C@@H]1O[C@H](CO)[C@@H](O)[C@H]1O", "note": "[ADENOSINE]", "values": [
      {"measurement": "IC50", "setting": "[1]; read-out: IC50", "value": 100000, "unit": "nM"}
    ]},
    {"smiles": "CN[C@@H]1CCCN(c2ncnc3[nH]ccc23)C1", "values": [
      {"measurement": "IC50", "setting": "[1]; read-out: IC50", "value": 141000, "unit": "nM"}
    ]},
    {"smiles": "CC(C)N(C[C@H]1O[C@@H](n2cnc3c(N)ncnc32)[C@H](O)[C@@H]1O)[C@H]1C[C@@H](CCc2nc3cc(C(C)(C)C)ccc3[nH]2)C1", "note": "[PINOMETOSTAT]", "values": [
      {"measurement": "TIME", "setting": "[2]", "value": "> 5", "unit": "h"},
      {"measurement": "IC50", "setting": "[3]", "value": 15, "unit": "nM"}
    ]},
    {"smiles": "Cc1ncccc1-c1c(Cl)sc2ccc(NC(=O)NCC(=O)NCCCN(C)[C@@H]3CCCN(c4ncnc5[nH]ccc45)C3)cc12", "values": [
      {"measurement": "IC50", "setting": "[1]; read-out: IC50", "value": "< 0.1", "unit": "nM"},
      {"measurement": "TIME", "setting": "[2]", "value": "> 5", "unit": "h"},
      {"measurement": "IC50", "setting": "[4]", "value": 3, "unit": "nM"},
      {"measurement": "IC50", "setting": "[5]", "value": 17, "unit": "nM"},
      {"measurement": "IC50", "setting": "[3]", "value": 5, "unit": "nM"},
      {"measurement": "Ki", "setting": "[6]", "value": 0.002, "unit": "nM"}
    ]},
    {"smiles": "NC(=O)CNC(=O)Nc1ccc2ccn(-c3ccccc3Cl)c2c1", "values": [
      {"measurement": "IC50", "setting": "[1]; read-out: pIC50 (converted)", "value": 7940, "unit": "nM"}
    ]},
    {"smiles": "CN(CCCNC(=O)CNC(=O)Nc1ccc2ccn(-c3ccccc3Cl)c2c1)[C@@H]1CCCN(c2ncnc3[nH]ccc23)C1", "values": [
      {"measurement": "IC50", "setting": "[1]; read-out: IC50", "value": 0.15, "unit": "nM"}
    ]}
  ]
}
